Assay results published in article PMC3440086, “Profiling Environmental Chemicals for Activity in the Antioxidant Response Element Signaling Pathway Using a High Throughput Screening Approach” (Environmental Health Perspectives, 2012).
Where two headings read alike, the source gives them in different places.

Assays:
mutated ARE = type: cell-based; details: for activity in ARE-bla-mut assay (words): follow-up studies, up to 46 µM
[1] = tested on: antioxidant response element (ARE) signaling pathway; assay: ARE-bla β-lactamase reporter gene assay in HepG2 cells (qHTS); type: cell-based, human
[2] = tested on: Nrf2-dependent ARE transcriptional activity; assay: ARE-luc luciferase reporter gene assay in HepG2 cells (qHTS); type: cell-based; details: for Emax: read-out: ARE-luc Efficacy
[3] = confirmation/follow-up studies, HepG2, mean ± SD
[4] = confirmation/follow-up studies, HepG2, 16 hr exposure, mean ± SD
[5] = follow-up studies, up to 46 µM, listed as chlorambucil
[6] = Homo sapiens, HepG2, confirmation/follow-up studies, activation of ARE reporter as % of positive control (β-napthoflavone), read-out: ARE-bla Efficacy
[7] = Homo sapiens, confirmation/follow-up studies, HepG2, 16 hr exposure, mean ± SD, read-out: ARE-bla EC50
[8] = primary qHTS screening, 0.59 nM to 92 µM
[9] = Homo sapiens, HepG2, confirmation/follow-up studies, activation of ARE reporter as % of positive control (β-napthoflavone)
[10] = Homo sapiens, confirmation/follow-up studies, HepG2, 16 hr exposure, mean ± SD, read-out: ARE-luc EC50
[11] = confirmation/follow-up studies, HepG2, 16 hr exposure, mean ± SD, read-out: ARE-bla EC50
[12] = confirmation/follow-up studies, activation of ARE reporter as % of positive control (β-napthoflavone)
[13] = confirmation/follow-up studies, HepG2, 16 hr exposure, mean ± SD, read-out: ARE-luc EC50
[14] = Homo sapiens, HepG2, confirmation/follow-up studies, […], read-out: ARE-bla Efficacy
[15] = Homo sapiens, HepG2, confirmation/follow-up studies, […]
[16] = confirmation/follow-up studies, […]
[17] = follow-up studies, up to 46 µM, listed as melphalan

With O=C(O)CCCc1ccc(N(CCCl)CCCl)cc1 [Chlorambucil, reference compound] the “ARE-bla mutant IC50” value (mutated ARE; [3]) was “inactive”, the “activity in ARE-bla-mut assay (words)” value (mutated ARE) was “inactive in all assays” and the “activity in ARE-bla-mut assay (words)” value (mutated ARE; listed as chlorambucil) was “inactive across all assays”. For the same compound, the “ARE-bla EC50” value [1, 4] was “inactive”, the “activity in ARE-bla assay (words)” value ([1]; follow-up studies, up to 46 µM) was “inactive in all assays” and the “activity in ARE-bla assay (words)” value [1, 5] was “inactive across all assays”. For the same compound, the “ARE-luc EC50” value [2, 4] was “inactive”, the “activity in ARE-luc assay (words)” value ([2]; follow-up studies, up to 46 µM) was “inactive in all assays” and the “activity in ARE-luc assay (words)” value [2, 5] was “inactive across all assays”.

With O=C(O)C1C(C(=O)O)C2(Cl)C(Cl)=C(Cl)C1(Cl)C2(Cl)Cl (stereo not shown) [Chlorendic acid] the “ARE-bla mutant IC50” value (mutated ARE) was “inactive”, the “ARE-bla EC50” value [1] was “inactive” and the “ARE-luc EC50” value [2] was “inactive”.

COc1cc(/C=C/C(=O)CC(=O)/C=C/c2ccc(O)c(OC)c2)ccc1O [Curcumin] was tested, and the “ARE-bla mutant IC50” value (mutated ARE; [3]) was “inactive”, the Emax [1, 6] was 21% and the EC50 [1, 7] was 3.2 ± 3.2 µM. The “activity in ARE-bla assay (words)” value [1, 8] was “high-quality active”, the Emax [2, 9] was 165% and the EC50 [2, 10] was 10.8 ± 0.7 µM. The “activity in ARE-luc assay (words)” value [2, 8] was “high-quality active”.

With O=C1c2ccccc2C(=O)C1c1ccc2ccccc2n1 [D & C Yellow II] the “ARE-bla mutant Efficacy” value (mutated ARE; confirmation/follow-up studies, normalized to DMSO (0%) and ARE-bla maximal β-napthoflavone response (100%)) was 48%, the “activity in ARE-bla-mut assay (words)” value (mutated ARE) was “may exhibit autofluorescence” and the EC50 [1, 11] was 0.7 ± 0.1 µM. For the same compound, the “ARE-bla Efficacy” value [1, 12] was 88%, the EC50 [2, 13] was 1.2 ± 0.7 µM and the “ARE-luc Efficacy” value [2, 12] was 185%.

In the case of CN1CSC(=S)N(C)C1 [Dazomet], the “ARE-bla mutant IC50” value (mutated ARE; [3]) is reported as “inactive”, the Emax [1, 14] is reported as 55% and the EC50 [1, 7] is reported as 20.1 ± 6.6 µM. It also gave an Emax [2, 15] of 22% and an EC50 [2, 10] of 26.6 ± 2.2 µM.

For ClC1=C(Cl)[C@]2(Cl)[C@@H]3[C@@H]4C[C@@H]([C@H]5O[C@@H]45)[C@@H]3[C@@]1(Cl)C2(Cl)Cl [Dieldrin], the “ARE-bla mutant IC50” value (mutated ARE; [3]) was “inactive”, the Emax [1, 14] was 40% and the EC50 [1, 7] was 15.5 ± 11.8 µM. It also gave an Emax [2, 15] of 27% and an EC50 [2, 10] of 14.2 ± 15 µM.

With O=c1cc(-c2ccccc2)oc2ccccc12 [Flavone] the “ARE-bla mutant IC50” value (mutated ARE; [3]) was “inactive”, the Emax [1, 6] was 80% and the EC50 [1, 7] was 2.4 ± 0.6 µM. For the same compound, the Emax [2, 9] was 47% and the EC50 [2, 10] was 7.6 ± 0.5 µM.

c1ccc2c(c1)-c1cccc3cccc-2c13 [Fluoranthene] was tested, and the “ARE-bla mutant IC50” value (mutated ARE) was “inactive”, the “ARE-bla EC50” value [1] was “inactive” and the “ARE-luc EC50” value [2] was “inactive”.

For C/C=C1/C(=O)C[C@H]2[C@@H]3CCC4=CC(=O)CC[C@]4(C)[C@H]3CC[C@]12C [Guggulsterones E], the “ARE-bla mutant IC50” value (mutated ARE) was “inactive”, the “ARE-bla Efficacy” value [1] was 106 and the EC50 ([1]; read-out: ARE-bla EC50) was 5 ± 3.1 µM. The “ARE-luc Efficacy” value [2] was 115 and the EC50 ([2]; read-out: ARE-luc EC50) was 15.4 ± 2.6 µM.

For [Cl][In]([Cl])[Cl] [Indium trichloride], the “ARE-bla mutant IC50” value (mutated ARE; [3]) was “inactive”, the EC50 [1, 11] was 14.8 ± 4.9 µM and the “ARE-bla Efficacy” value [1, 16] was 92%. For the same compound, the EC50 [2, 13] was 25 µM and the “ARE-luc Efficacy” value [2, 16] was 312%.

In the case of C[S@@+]([O-])CCCCN=C=S [L-sulforaphane], the “activity in ARE-bla assay (words)” value [1, 8] is reported as “active” and the “activity in ARE-luc assay (words)” value [2, 8] is reported as “active”.

With C[C@H](CCC(=O)O)[C@H]1CC[C@H]2[C@@H]3CC[C@@H]4C[C@H](O)CC[C@]4(C)[C@H]3CC[C@]12C [Lithocholic acid] the “ARE-bla mutant IC50” value (mutated ARE) was “inactive”, the Emax [1, 6] was 65% and the EC50 [1, 7] was 17.7 ± 5.7 µM. The Emax [2, 9] was 61%, the EC50 [2, 10] was 21.9 ± 8.2 µM and the “activity in ARE-luc assay (words)” value ([2]; follow-up studies, up to 46 µM) was “active”. The “activity in ARE-luc assay (words)” value [2, 8] was “inactive”.

In the case of N[C@@H](Cc1ccc(N(CCCl)CCCl)cc1)C(=O)O [Melphalan, reference compound], the “ARE-bla mutant IC50” value (mutated ARE; [3]) is reported as “inactive”, the “activity in ARE-bla-mut assay (words)” value (mutated ARE) is reported as “inactive in all assays” and the “activity in ARE-bla-mut assay (words)” value (mutated ARE; listed as melphalan) is reported as “inactive across all assays”. The “activity in ARE-bla assay (words)” value ([1]; follow-up studies, up to 46 µM) was “inactive in all assays”, the “activity in ARE-bla assay (words)” value [1, 17] was “inactive across all assays” and the “activity in ARE-bla assay (words)” value [1, 8] was “showed activity”. For the same compound, the “ARE-luc EC50” value [2, 4] was “inactive”, the “activity in ARE-luc assay (words)” value ([2]; follow-up studies, up to 46 µM) was “inactive in all assays” and the “activity in ARE-luc assay (words)” value [2, 17] was “inactive across all assays”.

In the case of CCN(CC)c1ccc(N)cc1 [N,N-Diethyl-p-phenylenediamine], the “ARE-bla mutant IC50” value (mutated ARE; [3]) is reported as “inactive”, the EC50 [1, 11] is reported as 18.7 ± 7.6 µM and the “ARE-bla Efficacy” value [1, 16] is reported as 60%. For the same compound, the “ARE-luc EC50” value [2, 4] was “inactive”.

In the case of CC(C)Nc1ccc(Nc2ccccc2)cc1 [N-Isopropyl-N'-phenyl-p-phenylenediamine], the “ARE-bla mutant IC50” value (mutated ARE) is reported as “inactive”, the EC50 ([1]; Homo sapiens, HepG2, 16 h, read-out: ARE-bla EC50) is reported as 13.1 ± 8.9 µM and the Emax ([1]; Homo sapiens, HepG2, read-out: ARE-bla Efficacy) is reported as 71%.

In the case of Oc1ccc(/C=C/c2cc(O)cc(O)c2)cc1 [resveratrol], the “activity in ARE-bla assay (words)” value [1, 8] is reported as “active” and the “activity in ARE-luc assay (words)” value [2, 8] is reported as “active”.

O=c1cc(-c2ccccc2)oc2ccc3ccccc3c12 [β-Napthoflavone, reference compound] gave an EC50 ([1]; primary screening, positive control across all 18 plates, read-out: average EC50 in ARE-bla assay) of 2.1 µM and an EC50 ([2]; primary screening, positive control across all 18 plates, read-out: average EC50 in ARE-luc assay) of 5.2 µM.
